Here are results for 25 molecules from article PMC9358669, “Native metabolomics identifies the rivulariapeptolide family of protease inhibitors” (Nature Communications, 2022).

One may read the IC50 as the concentration that gives 50% inhibition.

Entries after “also recorded” stand apart in the source; their conditions may differ. Starred links: 1 amine or outer side, 2 acyl side, 3 side chain; linkers in the order of their positions; H or OH if unused. Positions of bridges follow the written chain, without caps; N, C: chain ends. Non-standard residues stand in square brackets, D forms with d. Residues, ends and D or L forms follow the SMILES beside them. *: point of attachment. Ahp(3S,6R)alloIle = CC[C@@H](C)[C@@H](C(=O)[*:2])N1C(=O)[C@@H](N[*:1])CC[C@H]1O; Leu(3R-OH,Nα-propionyl) = CCC(=O)N[C@H](C(=O)*)[C@H](O)C(C)C; Propanoyl(2R-OH,3-(4-HOPh)) = O=C([C@H](O)Cc1ccc(O)cc1)*; Propanoyl(2R-OMe,3-OSO3H) = CO[C@H](COS(=O)(=O)O)C(=O)*; NMeTyr(3-Br,OMe) = CN[C@@H](Cc1ccc(OC)c(Br)c1)C(=O)O; X1 = CC(C)[C@@H](O[*:3])[C@H](N[*:1])C(=O)[*:2]; NMeF = CN[C@@H](Cc1ccccc1)C(=O)O; NMeT = CN[C@H](C(=O)O)[C@@H](C)O; dPhLac = O=C(O)[C@H](O)Cc1ccccc1; NMeA = CN[C@@H](C)C(=O)O; NMeDha = C=C(NC)C(=O)O

One assay concerns Chymotrypsin.
Test: not given
More on the design: method as in earlier work. To be noted: Supplementary Table 5, Top 50 chymotrypsin inhibitors among Ahp-cyclodepsipeptides; cited from earlier work.
Turning to `CCCCCC(=O)NCC(=O)N[C@H](C(=O)N[C@@H]1C(=O)N[C@@H](CCC(N)=O)C(=O)N[C@H]2CC[C@@H](O)N(C2=O)[C@@H](Cc2ccccc2)C(=O)N(C)[C@@H](Cc2c[nH]c3ccccc23)C(=O)N[C@@H](C(C)C)C(=O)O[C@@H]1C)[C@@H](C)O` [Micropeptin 103], the IC50 was 1000 nM.

For `CC[C@H](C)[C@@H]1NC(=O)[C@H](Cc2ccc(OC)cc2)N(C)C(=O)[C@H]([C@@H](C)O)N2C(=O)[C@H](CC[C@H]2O)NC(=O)[C@H](CC(C)C)NC(=O)[C@@H](NC(=O)[C@H](CCC(N)=O)NC(=O)[C@H](CCc2ccc(O)cc2)NC(=O)[C@@H](O)CO)[C@@H](C)OC1=O` [Planktopeptin BL1125], the IC50 is 800 nM.

With Loggerpeptin A, the IC50 is 240 nM.

For the molecule Micropeptin T-20, the IC50 was 2.5 nM.

Take `CCCCCC(=O)NCC(=O)N[C@H](C(=O)N[C@@H]1C(=O)N[C@@H](CCC(N)=O)C(=O)N[C@H]2CC[C@@H](O)N(C2=O)[C@@H](Cc2ccccc2)C(=O)N(C)[C@@H](Cc2ccc(O)cc2)C(=O)N[C@@H](C(C)C)C(=O)O[C@@H]1C)[C@@H](C)O` [Micropeptin LH1021]: the IC50 is 1100 nM.

Take `CCCCCC(=O)N[C@@H](CCC(=O)O)C(=O)N[C@@H]1C(=O)N[C@@H](Cc2ccc(O)cc2)C(=O)N[C@H]2CC[C@@H](O)N(C2=O)[C@@H](CC(C)C)C(=O)N(C)[C@@H](Cc2ccc(O)cc2)C(=O)N[C@@H](C(C)C)C(=O)O[C@@H]1C` [Micropeptin E]: the IC50 was 1000 nM.

With `CCCCCC(=O)N[C@@H](CC(=O)O)C(=O)N[C@@H]1C(=O)N[C@@H](Cc2ccc(O)cc2)C(=O)N[C@H]2CC[C@@H](O)N(C2=O)[C@@H](CC(C)C)C(=O)N(C)[C@@H](Cc2ccccc2)C(=O)N[C@@H](C(C)C)C(=O)O[C@@H]1C` [Cyanopeptolin 963A], the IC50 was 900 nM.

`CCC(C)C(=O)N[C@@H](CCC(N)=O)C(=O)N[C@@H]1C(=O)N[C@@H](CC(C)C)C(=O)N[C@H]2CC[C@@H](O)N(C2=O)[C@@H](Cc2ccccc2)C(=O)N(C)[C@@H](Cc2ccc(O)cc2)C(=O)N[C@@H](C(C)C)C(=O)O[C@@H]1C` (stereo partly shown) [Crocapeptin A3]: the IC50 was 100 nM.

As for `CC[C@H](C)[C@@H]1NC(=O)[C@H](Cc2ccccc2)N(C)C(=O)[C@H](Cc2ccccc2)N2C(=O)[C@H](CC[C@H]2O)NC(=O)[C@H](CC(C)C)NC(=O)[C@@H](NC(=O)[C@H](O)CO)[C@@H](C)OC1=O` [Micropeptin MM836], the IC50 was 1400 nM.

Regarding Crocapeptin B, the IC50 was 200 nM.

With Micropeptin KB1048, the IC50 was 630 nM.

In the case of `CC[C@@H](C)[C@H]1C(=O)N(C)[C@@H](Cc2ccccc2)C(=O)N[C@@H](C(C)C)C(=O)O[C@H](C)[C@H](NC(=O)[C@H](CCC(N)=O)NC(=O)[C@H](O)Cc2ccc(O)cc2)C(=O)N[C@@H](Cc2ccc(O)cc2)C(=O)N[C@H]2CC[C@@H](O)N1C2=O` [Micropeptin KT1042] ({Propanoyl(2R-OH,3-(4-HOPh))}-QTY[Ahp(3S,6R)alloIle][NMeF]V; ester 2-C), the IC50 is 260 nM.

In the case of Dinghupepeptin B, the IC50 is 1100 nM.

As to `CCCC(=O)N[C@@H](CCC(N)=O)C(=O)N[C@@H]1C(=O)N[C@@H](CCCNC(N)=O)C(=O)N[C@H]2CC[C@@H](O)N(C2=O)[C@@H]([C@@H](C)CC)C(=O)N(C)[C@@H](Cc2ccc(OC)c(Br)c2)C(=O)N[C@@H](C(C)C)C(=O)O[C@@H]1C` [Symplocamide A], the IC50 was 380 nM.

Regarding `CCCCCCCC(=O)N[C@@H](CCC(=O)O)C(=O)N[C@@H]1C(=O)N[C@@H](Cc2ccc(O)cc2)C(=O)N[C@H]2CC[C@@H](O)N(C2=O)[C@@H](CC(C)C)C(=O)N(C)[C@@H](Cc2ccc(O)cc2)C(=O)N[C@@H](C(C)C)C(=O)O[C@@H]1C` [Micropeptin F], the IC50 was 1500 nM.

Regarding Micropeptin 88-Y, the IC50 was 1300 nM.

Turning to Micropeptin 88-A, the IC50 is 400 nM.

In the case of `C/C=C1\NC(=O)[C@@H](NC(=O)[C@@H](NC(=O)[C@H](C)NC(=O)CCC)C(C)C)[C@@H](C)OC(=O)[C@H](C(C)C)NC(=O)[C@H](Cc2ccc(O)cc2)N(C)C(=O)[C@H](Cc2ccccc2)N2C(=O)[C@H](CC[C@H]2O)NC1=O` [Bouillomide A], the IC50 was 170 nM.

As to `CCC(=O)N[C@@H](CCC(N)=O)C(=O)N[C@@H]1C(=O)N[C@@H](CC(C)C)C(=O)N[C@H]2CC[C@@H](O)N(C2=O)[C@@H](Cc2ccccc2)C(=O)N(C)[C@@H](Cc2ccc(O)cc2)C(=O)N[C@@H](C(C)C)C(=O)O[C@@H]1C` [Crocapeptin A1], the IC50 is 100 nM.

Regarding `CC[C@@H](C)[C@H]1C(=O)N(C)[C@@H](Cc2ccc(OC)c(Br)c2)C(=O)N[C@@H]([C@@H](C)CC)C(=O)O[C@H](C)[C@H](NC(=O)[C@@H](NC(=O)[C@@H](COS(=O)(=O)O)OC)C(C)C)C(=O)N[C@@H](CCCCN)C(=O)N[C@H]2CC[C@@H](O)N1C2=O` [Jizanpeptin C] ({Propanoyl(2R-OMe,3-OSO3H)}-VTK[Ahp(3S,6R)alloIle][NMeTyr(3-Br,OMe)]I; ester 2-C), the IC50 was 1400 nM.

The next assay has as its target T1, Chymotrypsin (Bos taurus, UniProt P00766).
T1 construct: purchased Sigma-Aldrich
Briefly: Native metabolomics / native MS detection of chymotrypsin-ligand complexes. It is filed as binding. To be noted: control compounds pooled at 10 µg/mL. Here is the method: For native metabolomics experiments, the same chromatographic parameters were used and in addition, 220 µL/min (setup A) or 150 µL/min (setup B) ammonium acetate buffer was infused post-column through a make-up pump and a PEEKT-splitter and enzyme solution was infused with 2 µL/min flow rate via the integrated syringe pump. ESI settings were set to 40 arb. units sheath gas flow, the auxiliary gas flow was set to 10 arb. units and sweep gas flow was set to 0 arb. units. The auxiliary gas temperature was set to 150 °C. The spray voltage was set to 3 kV and the inlet capillary was heated to 253 °C. S-lens level was set to 30 V applied. MS scan range was set to 2000-4000 m/z (setup A) and 2500–4000 m/z (setup B) with a resolution Rm/z 200 140,000 (setup A) and 120,000 (setup B) with 2 microscans. MS acquisition was performed in all-ion fragmentation (AIF) mode with Rm/z 200 with 20% HCD collision energy and an isolation window of 2000 –4000 m/z (setup A) or 2500–4000 m/z (setup B).
For native LC-MS data, multiple charged spectra were deconvoluted using the Xtract algorithm in Qualbrowser, part of the Xcalibur software (Thermo Scientific) and also using FLASHDeconv (version 2.0Beta) {Jeong, K. et al. FLASHDeconv: Ultrafast, High-Quality Feature Deconvolution for Top- Down Proteomics. Cell Syst 10, 213-218 e216 (2020).}. For Xtract algorithm, both deconvoluted native LC-MS and metabolomics LC-MS/MS.raw files were converted to the centroid.mzML file format using MSconvert of the proteowizard software package. For FLASHDeconv, the raw files were converted into centroid m/zML again using MSconvert software first. Then the converted mzML files were deconvolved to generate deconvolved.mzML format files. Feature finding of both file types was performed using a modified version of MZmine2.37 (corr.17.7). Feature tables from both intact protein mass and metabolomics data were matched by their retention time (RT) and an m/z offset corresponding to the mass of chymotrypsin (25234 Da) with an RT tolerance of 0.2 min and a mass tolerance of 4 Da.
To optimize ESI setting as well as the influence of NH4Acetate concentration and pH, we used molassamide as a test compound. For optimization of ESI settings, we performed flow injections without a column and ramped ESI aux gas temperature, in-source CID energy, S-lense RF voltage. Optimization of pH values over the entire LC gradient and peak intensities were both assessed using three different make-up buffers. Make-up buffer 1 was water, make-up buffer 2 was 10 mM NH4Acetate buffer, and make-up buffer 3 was 10 mM NH4Acetate buffer + 0.2% ammonium hydroxide, v/v. Effects of NH4Acetate concentration was assessed with an online mixed make-up flow (using Experimental Setup B) with the low-pressure gradient pump. As solvent A we used LC-MS grade water and 100 mM NH4Acetate as solvent B. Molassamide was prepared as 100 µM solutions from a 10 mM stock solution in DMSO by preparing a 1:100 dilution into solvent mixture 1 (water + 10% acetonitrile + 0.1% formic acid). Samples were analyzed as described in micro-flow LC-MS/MS data acquisition (setup A); 2 µL of each solution were injected into the mass spectrometer, while chymotrypsin (Sigma), dissolved in water to a final concentration of 2 mg/mL, was injected through the syringe pump at a flow rate of 2 µL/min. pH values were assessed by disconnecting the flow to the source and collecting ~30 µL of solvent every minute, then testing this value on pH paper.
Molassamide was prepared as 100 µM solutions from a 10 mM stock solution in DMSO by preparing a 1:100 dilution into solvent mixture 1 (water + 10% acetonitrile + 0.1% formic acid). From this 100 µM solution, dilutions were prepared at 10, 1, and 0.1 µM into solvent mixture 1. 2 µL of each solution were injected into the mass spectrometer. […]
In the case of `O=C1c2ccc(O)c(O)c2C(=O)c2c(O)ccc(O)c21` [quinalizarin], the “binding to chymotrypsin under native MS conditions” value (“binding to chymotrypsin” for short) is recorded as “did not observe the binding; also recorded: no binding”.

With `Oc1cc(O)cc(O)c1` [phloroglucinol], the “binding to chymotrypsin” value is on record as “did not observe the binding; also recorded: no binding”.

`C=C1C(=O)N[C@@H](C)C(=O)N(C)[C@@H](C)C(=O)N[C@@H]([C@H](OC(=O)[C@@H](NC(=O)CC)[C@H](O)C(C)C)C(C)C)C(=O)N(C)[C@@H]([C@@H](C)OC)C(=O)O[C@H](C(C)C)[C@H](NC(C)=O)C(=O)O[C@H](Cc2ccccc2)C(=O)N1C` [FR900359] (Ac-[X1][dPhLac][NMeDha]A[NMeA][X1](Leu(3R-OH,Nα-propionyl))[NMeT](Me); ester 1-C): the “binding to chymotrypsin” value is given as “did not observe the binding; also recorded: no binding”.

Consider `CC[C@H](C)[C@@H](C(=O)O[C@@H](CC(C)C)C(=O)N[C@@H](CC(C)C)C(=O)N[C@@H](C)/C=C/C(=O)N1C(=O)C=C(OC)[C@@H]1C)N(C)C` [gallinamide A], for which the “binding to chymotrypsin” value was “did not observe the binding; also recorded: no binding”.

On to `O=c1c(-c2ccc(O)cc2)coc2cc(O)cc(O)c12` [genistein], for which the “binding to chymotrypsin” value was “did not observe the binding; also recorded: no binding”.
